# Key:
# [1] = test system: PANC-1 pancreatic cancer cell line; test: Sulforhodamine B viability assay, PANC-1; format: cell-based, human; parameters: key to Average SRB: absorbance (optical density) at 570 nm, second wavelength subtracted; details: for ABSORBANCE: 0.1 μg/mL cisplatin; for SRB 24 h / SRB 48 h / SRB 72 h: Run 1 average
# Source text: (§1) Three different viability assays were chosen to complement each other and yielded results dependent on concentration and cell line: the Methyl Tetrazolium dye assay, the Sulforhodamine B fluorescent dye assay, and the Crystal Violet dye assay.
# The Sulforhodamine B and Crystal Violet assays provide information about protein and were used to complement the Methyl-Tetrazolium dye assay. […] It is used for the quantification of cellular proteins of cultured cells. The assay using Crystal Violet, a dye that binds electrostatically to proteins and stains DNA, provides a reliable, simple assay for measuring viability of cells. […]
# (§2) Cells were detached by trypsinization (Trypsin-0.25% EDTA, Invitrogen, 25200-072) during the logarithmic phase of culture growth and plated in 96-well plates (18.000 cells/well) (Corning, Costar 359) in a final volume of 200 μl of medium per well. […] The absorbance was measured after 24 hours, 48 hours, and 72 hours of incubation.
# (§3) For the Sulforhodamine B assay, 96-well plates were fixed by 10% trichloroacetic acid (Fluka, 91228) and were incubated at 4° C. for 1 hour. Afterwards, plates were rinsed with water and cells were stained with 0.4% Sulforhodamine B (Sigma, 341738), dissolved in 1% acetic acid (Carlo Ebra, 401422) for 15 minutes at room temperature (RT). The unbound stain was washed twice with 1% acetic acid. Finally, 10 mM Tris Buffer pH 10.5 (Sigma, T6791) was added to dissolve the dye.
# (§4) The optical density of each plate was measured on a μQuant spectrophotometer and the data were analyzed with Gen5 software (μQuant Biomolecular Spectrophotometer MQX200 and Gen5™ Microplate Data Collection & Analysis software, BioTek® Instruments. Inc, April 2008). Absorbance was measured at 570 nm for all assays and a second wavelength was measured in order to subtract noise. For the Methyl-Tetrazolium assay this second wavelength was 630 nm and for the Sulforhodamine B and Crystal Violet assays it was 690 nm.
# [2] = test system: COLO699N lung cancer cell line; test: Sulforhodamine B viability assay, COLO699N; format: cell-based, human; parameters: key to SRB Average: absorbance (optical density) at 570 nm, second wavelength subtracted; details: for Average SRB 24 h / Average SRB 48 h / Average SRB 72 h: COLO699N Run 1; for ABSORBANCE: COLO699N, 0.1 μg/mL cisplatin
# Source text: as §1
# The Sulforhodamine B and Crystal Violet assays provide information about protein and were used to complement the Methyl-Tetrazolium dye assay. […] It is used for the quantification of cellular proteins of cultured cells. The assay using Crystal Violet, a dye that binds electrostatically to proteins and stains DNA, provides a reliable, simple assay for measuring viability of cells.
# The Methyl Tetrazolium, Sulforhodamine B, and Crystal Violet assays were used to assess cell viabilities. The incubation times were 24 hours, 48 hours, and 72 hours. The Nerium oleander extract Anvirzel™ (a hot water extract of oleander obtained from Salud Integral, Honduras) was tested in concentrations ranging from 0.01 ng/mL to 10 ng/mL.
# as §2, §3, §4
smiles,measurement,setting,value
N.N.[Cl][Pt][Cl] [cisplatin],ABSORBANCE,"[1]; PANC-1, 48 h",1.861
same,ABSORBANCE,"[1]; PANC-1, 72 h",2.536
same,Average SRB,"[1]; PANC-1, Run 2, 24 h, 0.1 μg/ml CDDP",1.924
same,Average SRB,"[1]; PANC-1, Run 2, 24 h, 1 μg/ml CDDP",2.391
same,Average SRB,"[1]; PANC-1, Run 2, 24 h, 10 μg/ml CDDP",2.075
same,Average SRB,"[1]; PANC-1, Run 2, 24 h, 100 μg/ml CDDP",1.821
same,Average SRB,"[1]; PANC-1, Run 2, 48 h, 0.1 μg/ml CDDP",1.505
same,Average SRB,"[1]; PANC-1, Run 2, 48 h, 1 μg/ml CDDP",1.549
same,Average SRB,"[1]; PANC-1, Run 2, 48 h, 10 μg/ml CDDP",1.106
same,Average SRB,"[1]; PANC-1, Run 2, 48 h, 100 μg/ml CDDP",0.752
same,Average SRB,"[1]; PANC-1, Run 2, 72 h, 0.1 μg/ml CDDP",2.471
same,Average SRB,"[1]; PANC-1, Run 2, 72 h, 1 μg/ml CDDP",2.171
same,Average SRB,"[1]; PANC-1, Run 2, 72 h, 10 μg/ml CDDP",1.815
same,Average SRB,"[1]; PANC-1, Run 2, 72 h, 100 μg/ml CDDP",1.374
same,Average SRB,"[1]; PANC-1, Run 3, 24 h, 0.1 μg/ml CDDP",1.881
same,Average SRB,"[1]; PANC-1, Run 3, 24 h, 1 μg/ml CDDP",2.008
same,Average SRB,"[1]; PANC-1, Run 3, 24 h, 10 μg/ml CDDP",1.74
same,Average SRB,"[1]; PANC-1, Run 3, 24 h, 100 μg/ml CDDP",2.087
same,Average SRB,"[1]; PANC-1, Run 3, 48 h, 0.1 μg/ml CDDP",1.861
same,Average SRB,"[1]; PANC-1, Run 3, 48 h, 1 μg/ml CDDP",1.165
same,Average SRB,"[1]; PANC-1, Run 3, 48 h, 10 μg/ml CDDP",0.954
same,Average SRB,"[1]; PANC-1, Run 3, 48 h, 100 μg/ml CDDP",0.858
same,Average SRB,"[1]; PANC-1, Run 3, 72 h, 0.1 μg/ml CDDP",2.536
same,Average SRB,"[1]; PANC-1, Run 3, 72 h, 1 μg/ml CDDP",2.281
same,Average SRB,"[1]; PANC-1, Run 3, 72 h, 10 μg/ml CDDP",2.07
same,Average SRB,"[1]; PANC-1, Run 3, 72 h, 100 μg/ml CDDP",1.584
same,SRB 24 h,[1]; 0.1 μg/ml CDDP,1.369
same,SRB 48 h,[1]; 0.1 μg/ml CDDP,2.223
same,SRB 72 h,[1]; 0.1 μg/ml CDDP,2.191
same,SRB 24 h,[1]; 1 μg/ml CDDP,1.748
same,SRB 48 h,[1]; 1 μg/ml CDDP,1.748
same,SRB 72 h,[1]; 1 μg/ml CDDP,1.47
same,SRB 24 h,[1]; 10 μg/ml CDDP,1.597
same,SRB 48 h,[1]; 10 μg/ml CDDP,1.339
same,SRB 72 h,[1]; 10 μg/ml CDDP,1.435
same,SRB 24 h,[1]; 100 μg/ml CDDP,1.993
same,SRB 48 h,[1]; 100 μg/ml CDDP,1.53
same,SRB 72 h,[1]; 100 μg/ml CDDP,1.433
same,Average SRB 24 h,[2]; 0.1 μg/ml CDDP,1.552
same,Average SRB 48 h,"[2]; 0.1 μg/ml CDDP, 48 h",1.317
same,Average SRB 72 h,"[2]; 0.1 μg/ml CDDP, 72 h",1.658
same,Average SRB 24 h,[2]; 1 μg/ml CDDP,1.526
same,Average SRB 48 h,"[2]; 1 μg/ml CDDP, 48 h",1.388
same,Average SRB 72 h,"[2]; 1 μg/ml CDDP, 72 h",1.152
same,Average SRB 24 h,[2]; 10 μg/ml CDDP,1.384
same,Average SRB 48 h,"[2]; 10 μg/ml CDDP, 48 h",1.524
same,Average SRB 72 h,"[2]; 10 μg/ml CDDP, 72 h",0.922
same,Average SRB 24 h,[2]; 100 μg/ml CDDP,1.085
same,Average SRB 48 h,"[2]; 100 μg/ml CDDP, 48 h",1.452
same,Average SRB 72 h,"[2]; 100 μg/ml CDDP, 72 h",1.114
same,ABSORBANCE,[2]; 48 h,1.975
same,ABSORBANCE,[2]; 72 h,2.145
same,SRB Average,"[2]; Run 2, 24 h, 0.1 μg/ml CDDP",1.709
same,SRB Average,"[2]; Run 2, 24 h, 1 μg/ml CDDP",1.61
same,SRB Average,"[2]; Run 2, 24 h, 10 μg/ml CDDP",1.523
same,SRB Average,"[2]; Run 2, 24 h, 100 μg/ml CDDP",1.354
same,SRB Average,"[2]; Run 2, 48 h, 0.1 μg/ml CDDP",1.975
same,SRB Average,"[2]; Run 2, 48 h, 1 μg/ml CDDP",1.253
same,SRB Average,"[2]; Run 2, 48 h, 10 μg/ml CDDP",1.27
same,SRB Average,"[2]; Run 2, 48 h, 100 μg/ml CDDP",1.256
same,SRB Average,"[2]; Run 2, 72 h, 0.1 μg/ml CDDP",2.145
same,SRB Average,"[2]; Run 2, 72 h, 1 μg/ml CDDP",1.256
same,SRB Average,"[2]; Run 2, 72 h, 10 μg/ml CDDP",1.524
same,SRB Average,"[2]; Run 2, 72 h, 100 μg/ml CDDP",1.312
same,SRB Average,"[2]; Run 3, 24 h, 0.1 μg/ml CDDP",1.99
same,SRB Average,"[2]; Run 3, 24 h, 1 μg/ml CDDP",1.839
same,SRB Average,"[2]; Run 3, 24 h, 10 μg/ml CDDP",1.527
same,SRB Average,"[2]; Run 3, 24 h, 100 μg/ml CDDP",1.387
same,SRB Average,"[2]; Run 3, 48 h, 0.1 μg/ml CDDP",1.978
same,SRB Average,"[2]; Run 3, 48 h, 1 μg/ml CDDP",1.092
same,SRB Average,"[2]; Run 3, 48 h, 10 μg/ml CDDP",1.259
same,SRB Average,"[2]; Run 3, 48 h, 100 μg/ml CDDP",1.218
same,SRB Average,"[2]; Run 3, 72 h, 0.1 μg/ml CDDP",1.946
same,SRB Average,"[2]; Run 3, 72 h, 1 μg/ml CDDP",1.249
same,SRB Average,"[2]; Run 3, 72 h, 10 μg/ml CDDP",1.014
same,SRB Average,"[2]; Run 3, 72 h, 100 μg/ml CDDP",1.033

# Reference: patent US20190343908A1, “Therapeutic Combination for the Treatment of Cancer” (Nerium Biotechnology Inc., priority 2011, published 2019)
